Results from patent publication US6969702B2, “Compounds and methods for increasing neurogenesis” (priority 2002, dated 2005).
Marks after values point to notes of the source that are not given here. Square brackets hold non-standard residues; d marks the D form. Peptide text beside a SMILES is read from it.

Tests used:
[1] = tested on: cAMP activation in mouse adult neural stem cells; assay: cAMP detection (HitHunter EFC Cyclic AMP Chemiluminescence Assay); conditions: for Fold Induction cAMP: vs vehicle
[2] = tested on: mouse adult neural stem cells; assay: ATP-assay: proliferation (ATP levels) of neurosphere-derived cells
[3] = Table 2, 1000 nM, 4 days, vs vehicle
[4] = Table 2, 100 nM (cAMP concentration)
[5] = Table 2, 1 nM (cAMP concentration)
[6] = Table 1, 100 nM, after 15 minutes

CSCC[C@H](NC(=O)[C@H](CO)NC(=O)[C@H](Cc1ccc(O)cc1)NC(=O)[C@@H](N)CO)C(=O)N[C@@H](CCC(=O)O)C(=O)N[C@@H](Cc1cnc[nH]1)C(=O)N[C@@H](Cc1ccccc1)C(=O)N[C@@H](CCCNC(=N)N)C(=O)N[C@@H](Cc1c[nH]c2ccccc12)C(=O)NCC(=O)N[C@@H](CCCCN)C(=O)N1CCC[C@H]1C(=O)N[C@H](C(=O)NCC(=O)N[C@@H](CCCCN)C(=O)N[C@@H](CCCCN)C(=O)N[C@@H](CCCNC(=N)N)C(=O)N[C@@H](CCCNC(=N)N)C(=O)N1CCC[C@H]1C(=O)N[C@H](C(=O)N[C@@H](CCCCN)C(=O)N[C@H](C(=O)N[C@@H](Cc1ccc(O)cc1)C(=O)N1CCC[C@H]1C(=O)N[C@@H](CC(N)=O)C(=O)NCC(=O)N[C@@H](C)C(=O)N[C@@H](CCC(=O)O)C(=O)N[C@@H](CC(=O)O)C(=O)N[C@@H](CCC(=O)O)C(=O)N[C@@H](CO)C(=O)N[C@@H](C)C(=O)N[C@@H](CCC(=O)O)C(=O)N[C@@H](C)C(=O)N[C@@H](Cc1ccccc1)C(=O)N1CCC[C@H]1C(=O)N[C@@H](CC(C)C)C(=O)N[C@@H](CCC(=O)O)C(=O)N[C@@H](Cc1ccccc1)C(=O)O)C(C)C)C(C)C)C(C)C [ACTH (Human)] (H-SYSMEHFRWGKPVGKKRRPVKVYPNGAEDESAEAFPLEF-OH)
Fold Induction cAMP ([1]; Table 2, 100 nM): 1.8** (100 nM) fold | Fold Induction ATP [2, 3]: 1.2* fold

CSCC[C@H](NC(=O)[C@H](CO)NC(=O)[C@H](Cc1ccc(O)cc1)NC(=O)[C@@H](N)CO)C(=O)N[C@@H](CCC(=O)O)C(=O)N[C@@H](Cc1c[nH]cn1)C(=O)N[C@@H](Cc1ccccc1)C(=O)N[C@@H](CCCNC(=N)N)C(=O)N[C@@H](Cc1c[nH]c2ccccc12)C(=O)NCC(=O)N[C@@H](CCCCN)C(=O)N1CCC[C@H]1C(=O)N[C@H](C(=O)NCC(=O)N[C@@H](CCCCN)C(=O)N[C@@H](CCCCN)C(=O)N[C@@H](CCCNC(=N)N)C(=O)N[C@@H](CCCNC(=N)N)C(=O)N1CCC[C@H]1C(=O)N[C@H](C(=O)N[C@@H](CCCCN)C(=O)N[C@H](C(=O)N[C@@H](Cc1ccc(O)cc1)C(=O)N1CCC[C@H]1C(=O)N[C@@H](CC(N)=O)C(=O)NCC(=O)N[C@@H](C)C(=O)N[C@@H](CCC(=O)O)C(=O)N[C@@H](CC(=O)O)C(=O)N[C@@H](CCC(=O)O)C(=O)N[C@@H](CO)C(=O)N[C@@H](C)C(=O)N[C@@H](CCC(=O)O)C(=O)N[C@@H](C)C(=O)N[C@@H](Cc1ccccc1)C(=O)N1CCC[C@H]1C(=O)N[C@@H](CC(C)C)C(=O)N[C@@H](CCC(=O)O)C(=O)N[C@@H](Cc1ccccc1)C(=O)O)C(C)C)C(C)C)C(C)C [ACTH (Human)] (H-SYSMEHFRWGKPVGKKRRPVKVYPNGAEDESAEAFPLEF-OH; N-terminus and C-terminus assumed)
cAMP (pmol/well) [1, 4]: 0.11 ± 0.02 pmol/well | ATP (nM ATP/well) ([2]; Table 2, 1000 nM, 4 days): 15.7 ± 1.3 nM ATP/well

CC[C@H](C)[C@H](NC(=O)[C@H](CCC(N)=O)NC(=O)[C@H](Cc1c[nH]cn1)NC(=O)[C@H](C)NC(=O)[C@@H](N)CC(C)C)C(=O)N[C@@H](Cc1ccc(O)cc1)C(=O)N[C@@H](CCC(N)=O)C(=O)N[C@@H](Cc1ccccc1)C(=O)N[C@H](C(=O)N[C@@H](CC(=O)O)C(=O)N[C@@H](CCCCN)C(=O)N[C@@H](CC(=O)O)C(=O)N[C@@H](CCCCN)C(=O)N[C@@H](CC(=O)O)C(=O)N[C@@H](CC(N)=O)C(=O)N[C@H](C(=O)N[C@@H](C)C(=O)N1CCC[C@H]1C(=O)N[C@@H](CCCNC(=N)N)C(=O)N[C@@H](CO)C(=O)N[C@@H](CCCCN)C(=O)N[C@H](C(=O)N[C@@H](CO)C(=O)N1CCC[C@H]1C(=O)N[C@@H](CCC(N)=O)C(=O)NCC(=O)N[C@@H](Cc1ccc(O)cc1)C(N)=O)[C@@H](C)CC)C(C)C)[C@@H](C)O [Adrenomedullin (26-52)] (H-LAHQIYQFTDKDKDNVAPRSKISPQGY-NH2; N-terminus and C-terminus assumed)
cAMP (pmol/well) [1, 5]: 0.33 ± 0.07 pmol/well | ATP (nM ATP/well) ([2]; Table 2, 1 nM, 4 days): 11.4 ± 0.7 nM ATP/well

CC[C@H](C)[C@@H]1NC(=O)[C@H](CCCNC(=N)N)NC(=O)[C@H](CC(=O)O)NC(=O)[C@H](CCSC)NC(=O)[C@H](CCCNC(=N)N)NC(=O)CNC(=O)CNC(=O)[C@H](Cc2ccccc2)NC(=O)[C@@H](NC(=O)[C@H](CO)NC(=O)[C@H](CO)NC(=O)[C@H](CCCNC(=N)N)NC(=O)[C@H](CCCNC(=N)N)NC(=O)[C@H](CC(C)C)NC(=O)[C@@H](N)CO)CSSC[C@@H](C(=O)N[C@@H](CC(N)=O)C(=O)N[C@@H](CO)C(=O)N[C@@H](Cc2ccccc2)C(=O)N[C@@H](CCCNC(=N)N)C(=O)N[C@@H](Cc2ccc(O)cc2)C(=O)O)NC(=O)CNC(=O)[C@H](CC(C)C)NC(=O)CNC(=O)[C@H](CO)NC(=O)[C@H](CCC(N)=O)NC(=O)[C@H](C)NC(=O)CNC(=O)[C@H]([C@@H](C)CC)NC(=O)[C@H](CCCNC(=N)N)NC(=O)[C@H](CC(=O)O)NC(=O)[C@H](CCSC)NC(=O)[C@H](CCCNC(=N)N)NC(=O)CNC(=O)CNC(=O)[C@H](Cc2ccccc2)NC(=O)[C@@H](NC(=O)[C@H](CO)NC(=O)[C@H](CO)NC(=O)[C@H](CCCNC(=N)N)NC(=O)[C@H](CCCNC(=N)N)NC(=O)[C@H](CC(C)C)NC(=O)[C@@H](N)CO)CSSC[C@@H](C(=O)N[C@@H](CC(N)=O)C(=O)N[C@@H](CO)C(=O)N[C@@H](Cc2ccccc2)C(=O)N[C@@H](CCCNC(=N)N)C(=O)N[C@@H](Cc2ccc(O)cc2)C(=O)O)NC(=O)CNC(=O)[C@H](CC(C)C)NC(=O)CNC(=O)[C@H](CO)NC(=O)[C@H](CCC(N)=O)NC(=O)[C@H](C)NC(=O)CNC1=O [Beta-ANP]
cAMP (pmol/well) [1, 4]: 070 ± 0.04 pmol/well | ATP (nM ATP/well) ([2]; Table 2, 100 nM, 4 days): 13.6 ± 2.1 nM ATP/well

CC[C@H](C)[C@H](NC(=O)[C@H](C)NC(=O)[C@@H](NC(=O)[C@H](CCC(N)=O)NC(=O)[C@@H]1CCCN1C(=O)[C@H](Cc1ccccc1)NC(=O)[C@@H](NC(=O)[C@H](Cc1c[nH]cn1)NC(=O)[C@H](Cc1ccccc1)NC(=O)[C@H](CCCCN)NC(=O)[C@H](CC(N)=O)NC(=O)[C@H](Cc1ccccc1)NC(=O)[C@H](CC(=O)O)NC(=O)[C@H](CCC(N)=O)NC(=O)[C@@H](NC(=O)[C@H](Cc1ccc(O)cc1)NC(=O)[C@@H](NC(=O)CNC(=O)[C@H](CC(C)C)NC(=O)[C@H](CCSC)NC(=O)[C@@H]1CSSC[C@H](N)C(=O)NCC(=O)N[C@@H](CC(N)=O)C(=O)N[C@@H](CC(C)C)C(=O)N[C@@H](CO)C(=O)N[C@@H]([C@@H](C)O)C(=O)N1)[C@@H](C)O)[C@@H](C)O)[C@@H](C)O)[C@@H](C)O)C(=O)NCC(=O)N[C@H](C(=O)NCC(=O)N[C@@H](C)C(=O)N1CCC[C@H]1C(N)=O)C(C)C [Calcitonin (human)]
cAMP (pmol/well) [1, 4]: 0.35 ± 0.15 pmol/well | ATP (nM ATP/well) ([2]; Table 2, 100 nM, 4 days): 9.9 ± 1.6 nM ATP/well

CC(C)C[C@H](NC(=O)[C@H](CC(C)C)NC(=O)[C@@H](Cc1c[nH]c2ccccc12)NC(=O)[C@H](Cc1ccccc1)NC(=O)[C@@H](Cc1c[nH]c2ccccc12)NC(=O)[C@H](CCC(N)=O)NC(=O)[C@H](CCC(N)=O)NC(=O)[C@@H]1CCCN1C(=O)[C@H](CCCCN)NC(=O)[C@@H]1CCCN1C(=O)[C@@H](CCCNC(=N)N)NC(=O)[C@@H]1CCCN1C(=O)CNC(=O)[C@H](CC(C)C)NC(=O)[C@H](CC(C)C)NC(=O)[C@H](Cc1ccc(O)cc1)NC(=O)CNC(=O)[C@H](C)NC(=O)[C@H](CO)NC(=O)[C@H](CC(N)=O)NC(=O)[C@H](CC(C)C)NC(=O)[C@@H](NC(=O)[C@H](Cc1c[nH]c2ccccc12)NC(=O)CN)[C@@H](C)O)C(N)=O [Galanin (1-13)-Spantide-Amide, M40] (H-GWTLNSAGYLLGP[dR]PKPQQ[dW]F[dW]LL-NH2; N-terminus assumed)
cAMP (pmol/well) [1, 5]: 0.82 ± 0.08 pmol/well | ATP (nM ATP/well) ([2]; Table 2, 100 nM, 4 days): 7.10 ± 0.5 nM ATP/well

CC[C@H](C)[C@H](NC(=O)[C@H](Cc1ccccc1)NC(=O)[C@H](CCC(=O)O)NC(=O)[C@H](CCCCN)NC(=O)[C@H](C)NC(=O)[C@H](C)NC(=O)[C@H](CCC(N)=O)NC(=O)CNC(=O)[C@H](CCC(=O)O)NC(=O)[C@H](CC(C)C)NC(=O)[C@H](Cc1ccc(O)cc1)NC(=O)[C@H](CO)NC(=O)[C@H](CO)NC(=O)[C@@H](NC(=O)[C@H](CC(=O)O)NC(=O)[C@H](CO)NC(=O)[C@@H](NC(=O)[C@H](Cc1ccccc1)NC(=O)[C@@H](NC(=O)CNC(=O)[C@H](CCC(=O)O)NC(=O)[C@H](C)NC(=O)[C@@H](N)Cc1c[nH]cn1)[C@@H](C)O)[C@@H](C)O)C(C)C)C(=O)N[C@@H](C)C(=O)N[C@@H](Cc1c[nH]c2ccccc12)C(=O)N[C@@H](CC(C)C)C(=O)N[C@H](C(=O)N[C@@H](CCCCN)C(=O)NCC(=O)N[C@@H](CCCNC(=N)N)C(=O)NCC(=O)O)C(C)C [Glucagon-Like Peptide-1 (7-37) (Human)]
cAMP (pmol/well) [1, 4]: 0.08 ± 0.01 pmol/well | Fold Induction cAMP ([1]; Table 2, 100 nM): 1.4* (100 nM) fold | ATP (nM ATP/well) ([2]; Table 2, 1000 nM, 4 days): 18.3 ± 1.4 nM ATP/well | Fold Induction ATP [2, 3]: 1.3** fold

CCCCC#Cc1nc(N)c2ncn([C@@H]3O[C@H](C(=O)NCC)[C@@H](O)[C@H]3O)c2n1 [HE-NECA]
cAMP (pmol/well) ([1]; Table 2, 10 nM (cAMP concentration)): 3.32 ± 0.28 pmol/well | Fold Induction cAMP ([1]; Table 2, 10 nM): 1.8*** (10 nM) fold | ATP (nM ATP/well) ([2]; Table 2, 1000 nM, 4 days): 8.2 ± 1.1 nM ATP/well | Fold Induction ATP [2, 3]: 1.8** fold

CCCC(=O)Nc1ncnc2c1ncn2[C@@H]1O[C@H](CO)[C@@H](O)[C@H]1OC(=O)CCC [N-6,2-O-Dibutyryladenosine, n-6,2-o-dibutyryladenosine]
cAMP (pmol/well) [1, 6]: 0.10 ± 0.01 pmol/well | Fold Induction cAMP [1, 6]: 4.5** fold | ATP (nM ATP/well) ([2]; Table 1, 100 nM, 4 days in culture): 13.9 ± 1.1 nM ATP/well | Fold Induction ATP ([2]; Table 1, 100 nM, 4 days, vs vehicle treated cells): 1.5** fold | proliferation of neural stem cells ([2]; cAMP activators, GPCR-independent): increase

Oc1ccc2c3c1O[C@H]1c4[nH]c5c(c4C[C@@]4(O)[C@@H](C2)N(CC2CC2)CC[C@]314)C[C@@]1(O)[C@H]2Cc3ccc(O)c4c3[C@@]1(CCN2CC1CC1)[C@H]5O4 [Nor-Binaltorphimine, nor-Binaltorphimine]
fold induction at 10 pM ([1]; Mus musculus, Neural stem cell, read-out: Fold Induction cAMP): 6.3 | cAMP (pmol/well) ([1]; Table 2, 0.01 nM (bracketed cAMP concentration)): 6.10 ± 3.72 pmol/well | fold induction at 0.0001 µM ([2]; Mus musculus, Neural stem cell, 96 h, read-out: Fold Induction ATP): 1.4 | ATP (nM ATP/well) ([2]; Table 2, 0.1 nM, 4 days): 19.4 ± 3.2 nM ATP/well
